Values after ≈ are worked out from the molar mass of the structure shown.
How the values were obtained:
Assay type in all cases: cell-based
[1] = tested on: Microsporum canis (NBRC7863); assay: Antimicrobial activity test, minimum inhibitory concentration (Test Example 5); details: Sabouraud media, 25° C. for 120 hours
Procedure: Test Example 5: Antimicrobial Activity Test Test Compound: Compound No. 6 Test Microbial Strain: Microsporum Canis (NBRC7863) The strain was cultured in a Sabouraud medium and then suspended in PBS containing Tween80 (1% (V/V)), the resulting suspension was filtered through a cell strainer (φ40 µm), spores were recovered from the filtrate by centrifugation (3500 rpm, 5 minutes) and washed twice with physiological saline, and then a spore suspension was prepared (1 × 10^6 spores/mL). 50 µL of the spore suspension was inoculated into Sabouraud media to which compound No. 6 dissolved in DMSO was added to have various concentrations. After culturing at 25° C. for 120 hours, the presence or absence of microbial growth was investigated, and the minimum inhibitory concentration was determined.

[2] = tested on: Malassezia pachydermatis (IFM56528); assay: Antifungal activity test, inhibitory concentration by WST-8 viability in 96-well plate (Test Example 11); details: M. pachydermatis IFM56528, 32° C. for 72 hours; for MIC: viability 0%, read-out: Inhibitory concentration MIC100; for MIC50: viability 50%
Procedure: Test Example 11: Antifungal Activity Test
Test Compounds: Compound No. 1 and Compound No. 6
Test Microbial Strain: Malassezia Pachydermatis (IFM56528)
The Malassezia microbe (Malassezia pachydermatis) cultured for 5 to 7 days in a Sabouraud dextrose medium (1% peptone, 4% dextrose) was suspended in physiological saline and a Malassezia microbe suspension was prepared in such a way as to have an absorbance of 0.0025 at 600 nm. The microbe suspension was placed in a 96-well plate at 190 µL/well, and 10 µL of the test compound dissolved in DMSO was added thereto in such a way as to provide a final concentration of 500, 250, 125, 62.5, 31.25, 16, 8, 4, 2, 1, or 0.5 ppm, and the 96-well plate was subjected to culturing at 32° C. for 72 hours. After culturing, 20 µL each of WST-8 (viable cell counting reagent, manufactured by Nacalai Tesque, Inc.) was added, and the 96-well plate was kept warm at 32° C. for 5 hours to develop a color. The absorbance at 450 nm was measured using a microplate reader (SpectraMax M2, manufactured by Molecular Devices, LLC). The absorbance of a well to which the test compound was added (absorbance in the inventive plot) and the absorbance of a well in the solvent to which the test compound was not added (absorbance in the non-agent treated plot) were measured, the viability (%) of the Malassezia microbe was determined according to the following expression, and the agent concentration at which the viability was 0% was defined as the minimum inhibitory concentration (MIC100). Further, the agent concentration at which the viability was 50% was defined as the half inhibitory concentration (MIC50).
[…] = [(absorbance in non-agent treated plot - absorbance in inventive plot)/absorbance in non-agent treated plot] × 100

[3] = tested on: Microsporum canis (TIMM20080 strain); assay: Antimicrobial activity test, minimum inhibitory concentration (Test Example 4); details: Sabouraud media, 28° C. for 72 hours
Procedure: Test Example 4: Antimicrobial Activity Test Test Compound: Compound No. 1
Test Microbial Strain: Microsporum Canis (TIMM20080 Strain)
(§1) The microbial strain was cultured in a Sabouraud medium containing 500 µg/mL of cycloheximide and 50 µg/mL of chloramphenicol at 28° C. for 8 days, then spores were collected in physiological saline containing Tween80 (0.05% (v/v)), this was filtered through a cell strainer (φ40 µm), the spores were recovered from the filtrate by centrifugation (3500 rpm, 5 minutes) and washed twice with physiological saline, and then a spore suspension was prepared (1 × 10^7 spores/mL). 10 µL of the spore suspension was inoculated into Sabouraud media to which compound No. 1 dissolved in DMSO was added to have various concentrations. After culturing at 28° C. for 72 hours, the amount of microbial growth was investigated, and the minimum inhibitory concentration was determined.

[4] = tested on: Malassezia pachydermatis (IFM56528 strain); assay: Antimicrobial activity test: colony formation inhibition after 1 minute contact (Test Examples 1 and 2); details: M. pachydermatis IFM56528, final concentration 500 ppm, then culturing at 32° C. for 72 hours, read-out: Colony formation inhibition rate (%)
Procedure: Test microbial strain: Malassezia pachydermatis (IFM56528 strain, strain obtained from Chiba University) The Malassezia microbe (Malassezia pachydermatis) cultured for 5 to 7 days in a Sabouraud medium (1% peptone, 4% dextrin, 1.5% agar) supplemented with 0.5% of Tween 40 (polyoxyethylene sorbitan monopalmitate: manufactured by Kanto Chemical Co., Inc.) was suspended in physiological saline and a suspension thereof was prepared in such a way as to have an absorbance of 0.25 at 550 nm. […] Colony formation inhibition rate (%) = [(number of colonies in non-agent treated plot - number of colonies in inventive plot)/number of colonies in non-agent treated plot] × 100 Test compound: Compound No. 1 (final concentration of 500 ppm) Test microbial strains: Malassezia pachydermatis (IFM56528 strain), M. furfur (IMF55951 strain), M. sympodialis (IMF48588 strain), M. globosa (IMF51946 strain), and M. restricta (IMF55992 strain) The colony formation inhibition rate for each of the test strains was determined by the same method as in Test Example 1.

[5] = tested on: Arthroderma vanbreuseghemii (TIMM2789); assay: Antifungal activity test, minimum inhibitory concentration (Test Example 9); details: Trichophyton mentagrophytes, Sabouraud media, 28° C. for 72 hours, read-out: Minimum inhibitory concentration (MIC100)
Procedure: as §1, with “Test Example 9: Antifungal Activity Test Test Compound: Compound No. 1 Test Microbial Strain: Arthroderma Vanbreuseghemii (TIMM2789) The” for “The”, “concentrations.” for “concentrations. After culturing at 28° C. for 72 hours, the amount of microbial growth was investigated, and the minimum inhibitory concentration was determined.”

MIC [1] [µg/mL]	MIC90 [2] [µg/mL]	MIC [2] [µg/mL]	MIC50 [2] [µg/mL]	MIC [3] [µg/mL]	MIC [5] [µg/mL]	SMILES	inhibition at 500 ppm [4] [%]
125 (≈ 496 µM)	4 (≈ 15.9 µM)	4 (≈ 15.9 µM)	2 (≈ 7.93 µM)	–	–	Cc1ccc(-c2nc(C#N)[nH]c2Cl)cc1Cl [Compound No. 6, 5-chloro-4-(3-chloro-4-methylphenyl)-1H-imidazole-2-carbonitrile]	–
–	16 (≈ 73.5 µM)	16 (≈ 73.5 µM)	8 (≈ 36.8 µM)	10 (≈ 45.9 µM)	10 (≈ 45.9 µM)	Cc1ccc(-c2nc(C#N)[nH]c2Cl)cc1 [Compound No. 1, 5-Chloro-4-(4-methylphenyl)-1H-imidazole-2-carbonitrile]	100

Reference: patent US20230255939A1, “Antimicrobial Agent for Non-Human Animal” (ISHIHARA SANGYO KAISHA, LTD, priority 2020, published 2023)
